Data reported in patent US20130123261A1, “ISOXAZOLINE COMPOUNDS IN TYPE 2 DIABETES AND OTHER MALADIES” (CPSI STOCKHOLDER TRUST, priority 2009, published 2013).

Tested on: STZ-induced NIDDM in outbred ICR mice
Assay: Effect of orally administered MIF antagonist on STZ-induced NIDDM in ICR mice
Type: in vivo
Conditions: for blood glucose levels: STZ 90 mg/Kg i.p., oral, daily single dose for 30 days; for blood glucose levels / serum levels of inflammatory cytokines / pro-inflammatory cytokine production: dose not stated
Procedure: ICR, MIF−/− BALB/c and BALB/c mice were fasted 20 hr before induction of diabetes with a single i.p. injection of STZ 90 mg/Kg (for ICR mice) or 130 mg/kg (for BALB/c mice) (Sigma, St. Louis, Mo., U.S.A.) freshly dissolved in 0.05 M citrate buffer, pH 4.5 following the protocol previously reported (13;14). Normal mice of each strain were injected with equivalent volume of citrate buffer as negative controls.
Blood samples from WT and MIF−/− mice were collected at 0, 1, 2, 4, 6, 8, and 10 weeks after STZ injection by tail snipping. Serum glucose levels were determined using Accu-Chek® glucometer. Body weights were measured immediately before blood collection. The animals were kept in individual metabolic cages for 24 hrs and provided with drinking water (100 ml) and food (75 g). The water and food consumption as well as urine output over a 24 hr period was determined. This process was repeated every week until 10 weeks after STZ induction.
Following administration of STZ, blood was collected at 1-week intervals by tail snips. Levels of TNF-α, IL-1β, IL-6, IL-4, IL-10, resistin (all from Peprotech, Mexico), and insulin (Lincon, St. Charles, Mo.) in sera were determined by ELISA as per the manufacturer's instructions.
Age and sex-matched ICR mice were fasted for 20 hrs and then injected i.p. with STZ (90 mg/Kg). Six-hours later following STZ injection mice were administered CSP1306 or PBS daily in a single dose orally for 30 days. Blood was collected by tail snipping once every week to measure glucose levels using Accu-Chek® glucometer and to determine cytokine levels by ELISA as described above. CPSI 1306 has the following formula: […]
NIDDM was induced in ICR mice by a single intraperitoneal injection of STZ (90 mg/kg). On day 5 post-STZ injection and thereafter mice were orally administered CPSI-1306 (1 mg/kg or 0.1 mg/Kg) daily for 30 days. Mice were bled once a week by tail sniping and levels of glucose (A) and inflammatory cytokines IL-6 (B) and TNF-α (C) in the blood were determined. The data are from one representative experiment out of three. * p<0.05.

[1] = ICR mice with STZ injection, 0.1 and 0.01 mg/kg
[2] = ICR mice, STZ-induced NIDDM, oral administration, ELISA

O=C(C[C@H]1CC(c2ccc(F)cc2F)=NO1)N1CCOCC1 [CPSI-1306]
blood glucose [1]: significant reduction | polyuria [1]: less polyuria | serum levels of inflammatory cytokines [1]: significant reduction | severity of NIDDM [1]: reduced severity of NIDDM | blood glucose levels after stoppage of treatment (ICR mice with STZ injection, after stoppage of treatment, data not shown): spike in blood glucose levels | blood glucose levels (ICR mice, listed as CSP156): significant drop | blood glucose levels (ICR mice, listed as CSP1306): significantly lowered blood glucose levels in majority of animals | blood glucose levels (ICR mice, listed as CSPI-1306): highly effective | level of pro-inflammatory cytokine IL-6 in the sera [2]: significant reduction | level of pro-inflammatory cytokine TNF-α in the sera [2]: significant reduction | serum levels of inflammatory cytokines / pro-inflammatory cytokine production (ICR mice, STZ-induced NIDDM, oral administration, listed as CSP156): reduction in serum levels of inflammatory cytokines | serum levels of inflammatory cytokines / pro-inflammatory cytokine production (ICR mice, STZ-induced NIDDM, oral administration, listed as CSPI-1306): highly effective in suppressing pro-inflammatory cytokine production | severity and progression of STZ-induced NIDDM (FIG. 6) (outbred ICR mice, STZ 90 mg/kg i.p., oral 1 mg/kg or 0.1 mg/Kg daily for 30 days from day 5 post-STZ): Significantly Reduces Severity and Progression
